Tests used:
Assay type in all cases: in vivo
[1] = test system: Kochia (Kochia scoparia); assay: Test A postemergence; details: Bassia scoparia, post-emergence, 240 h, read-out: Plant response rating, Kochia; for pest or weed control at 125 g/ha: 125 g ai/ha, postemergence, visual injury after approximately 10 d, 0 to 100 scale (0 no effect, 100 complete control)
Method in brief: (§1)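 Ratings of 0 (no effect) to 100 (complete control) come from visual comparison with untreated controls roughly 10 d after treatment. Test chemicals, formulated in a non-phytotoxic solvent mixture with surfactant, were applied either as a preemergence directed soil spray on seeded soil or postemergence to one- to two-leaf plants 2 to 10 cm tall.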

[2] = test system: blackgrass (Alopecurus myosuroides); assay: Test A postemergence; details: Alopecurus myosuroides, post-emergence, 240 h, read-out: Plant response rating, Blackgrass; for pest or weed control at 125 g/ha: 125 g ai/ha, postemergence, visual injury after approximately 10 d, 0 to 100 scale (0 no effect, 100 complete control)
Method in brief: as §1

[3] = test system: barnyardgrass (Echinochloa crus-galli); assay: Test A postemergence; details: Echinochloa crus-galli, post-emergence, 240 h, read-out: Plant response rating, Barnyardgrass; for pest or weed control at 125 g/ha: 125 g ai/ha, postemergence, visual injury after approximately 10 d, 0 to 100 scale (0 no effect, 100 complete control)
Method in brief: as §1

[4] = test system: corn (Zea mays); assay: Test A postemergence; details: Zea mays, post-emergence, 240 h; for Corn plant response rating (crop injury, 0 = no effect, 100 = complete kill) at 125 g/ha: 125 g ai/ha, postemergence, visual injury after approximately 10 d, 0 to 100 scale (0 no effect, 100 complete control)
Method in brief: as §1

[5] = test system: ryegrass, Italian (Italian ryegrass, Lolium multiflorum); assay: Test A postemergence; details: Lolium multiflorum, post-emergence, 240 h, read-out: Plant response rating, Ryegrass, Italian; for pest or weed control at 125 g/ha: 125 g ai/ha, postemergence, visual injury after approximately 10 d, 0 to 100 scale (0 no effect, 100 complete control)
Method in brief: as §1

[6] = test system: Galium (catchweed bedstraw, Galium aparine); assay: Test A postemergence; details: Galium, post-emergence, 240 h, read-out: Plant response rating, Galium; for pest or weed control at 125 g/ha: 125 g ai/ha, postemergence, visual injury after approximately 10 d, 0 to 100 scale (0 no effect, 100 complete control)
Method in brief: as §1

[7] = test system: giant foxtail (Setaria faberii); assay: Test A postemergence; details: Setaria faberi, post-emergence, 240 h, read-out: Plant response rating, Foxtail, Giant; for pest or weed control at 125 g/ha: 125 g ai/ha, postemergence, visual injury after approximately 10 d, 0 to 100 scale (0 no effect, 100 complete control)
Method in brief: as §1

[8] = test system: ragweed (common ragweed, Ambrosia elatior); assay: Test A postemergence; details: Ambrosia artemisiifolia, post-emergence, 240 h, read-out: Plant response rating, Ragweed; for pest or weed control at 125 g/ha: 125 g ai/ha, postemergence, visual injury after approximately 10 d, 0 to 100 scale (0 no effect, 100 complete control)
Method in brief: as §1

[9] = test system: pigweed (Amaranthus retroflexus); assay: Test A postemergence; details: Amaranthus retroflexus, post-emergence, 240 h, read-out: Plant response rating, Pigweed; for pest or weed control at 125 g/ha: 125 g ai/ha, postemergence, visual injury after approximately 10 d, 0 to 100 scale (0 no effect, 100 complete control)
Method in brief: as §1

[10] = test system: wheat (Triticum aestivum); assay: Test A postemergence; details: Triticum aestivum, post-emergence, 240 h, read-out: Plant response rating, Wheat; for plant injury at 125 g/ha: 125 g ai/ha, postemergence, visual injury after approximately 10 d, 0 to 100 scale (0 no effect, 100 complete control)
Method in brief: as §1

[11] = test system: barnyardgrass (Echinochloa crus-galli); assay: Test B flooded paddy test; details: Echinochloa crus-galli, Flood, 250 g ai/ha; scale of 0 to 100 where 0 is no effect and 100 is complete control; read-out: Barnyardgrass plant response rating
Method in brief: (§2)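 Percent control, visually estimated after 13–15 d in the greenhouse on a 0–100 basis, compares treated pots with untreated ones; compound was put into paddy water 3 cm above the soil when plants had two leaves.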

[12] = test system: rice (Oryra sativa); assay: Test B flooded paddy test; details: Oryza sativa, Flood, 250 g ai/ha; scale of 0 to 100 where 0 is no effect and 100 is complete control; read-out: Rice plant response rating
Method in brief: as §2

[13] = test system: sedge, umbrella (small-flower umbrella sedge, Cyperus difformis); assay: Test B flooded paddy test; details: Cyperus difformis, Flood, 250 g ai/ha; scale of 0 to 100 where 0 is no effect and 100 is complete control; read-out: Sedge, Umbrella plant response rating
Method in brief: as §2

[14] = test system: ducksalad (Heteranthera limosa); assay: Test B flooded paddy test; details: Heteranthera limosa, Flood, 250 g ai/ha; scale of 0 to 100 where 0 is no effect and 100 is complete control; read-out: Ducksalad plant response rating
Method in brief: as §2

[15] = Postemergence, 31 g ai/ha, visual injury after approx. 10 d, 0 to 100 scale, 0 no effect, 100 complete control

Structure (SMILES)	pest or weed control at 125 g/ha [1]	pest or weed control at 125 g/ha [2]	pest or weed control at 125 g/ha [3]	Corn plant response rating (crop injury, 0 = no effect, 100 = complete kill) at 125 g/ha [4]	pest or weed control at 125 g/ha [5]	pest or weed control at 125 g/ha [6]	pest or weed control at 125 g/ha [7]	pest or weed control at 125 g/ha [8]	pest or weed control at 125 g/ha [9]	plant injury at 125 g/ha [10]	pest or weed control at 250 g/ha [11]	pest or weed control at 250 g/ha [12]	pest or weed control at 250 g/ha [13]	pest or weed control at 250 g/ha [14]	other results
CN1C[C@H](c2ccc(C(F)(F)F)cc2)[C@@H](C(=O)Nc2ccc(F)c(F)c2F)C1=O [Compound 745]	70%	40%	90%	90%	50%	60%	90%	40%	70%	60%	70%	40%	0%	100%	–
CS(=O)(=O)c1ccccc1NC(=O)[C@H]1C(=O)NC[C@@H]1c1cccc2c1OC(F)(F)O2 [Compound 753]	0%	0%	50%	0%	0%	0%	0%	0%	0%	0%	0%	0%	0%	60%	–
Cc1ccc([C@H]2CNC(=S)[C@@H]2C(=O)Nc2cccc(F)c2C)cc1C [Compound 764]	0%	0%	80%	0%	30%	0%	0%	0%	0%	0%	50%	0%	0%	90%	–
CSc1ccccc1NC(=O)[C@H]1C(=S)NC[C@@H]1c1ccc(C)c(C)c1 [Compound 766]	0%	0%	10%	0%	0%	0%	0%	0%	0%	0%	0%	0%	60%	85%	–
COc1cc([C@H]2CN(C)C(=O)[C@@H]2C(=O)Nc2ccccc2F)ccc1C(F)(F)F [Compound 768]	0%	0%	70%	30%	30%	30%	80%	0%	0%	0%	60%	15%	0%	85%	–
COc1cc([C@H]2CN(C)C(=O)[C@@H]2C(=O)Nc2cccc(F)c2F)ccc1C(F)(F)F [Compound 770]	40%	0%	60%	50%	0%	60%	70%	0%	30%	0%	0%	0%	0%	0%	pest or weed control at 31 g/ha [1, 15]: 0%; pest or weed control at 31 g/ha [2, 15]: 0%; pest or weed control at 31 g/ha [3, 15]: 30%; Corn plant response rating (crop injury, 0 = no effect, 100 = complete kill) at 31 g/ha [4, 15]: 0%; pest or weed control at 31 g/ha [5, 15]: 0%; pest or weed control at 31 g/ha [6, 15]: 30%; pest or weed control at 31 g/ha [7, 15]: 60%; pest or weed control at 31 g/ha [8, 15]: 0%; pest or weed control at 31 g/ha [9, 15]: 0%; plant injury at 31 g/ha [10, 15]: 0%
CC(F)(F)c1cccc([C@H]2CNC(=O)[C@@H]2C(=O)Nc2cccc(F)c2F)c1 [Compound 779]	30%	70%	90%	80%	40%	60%	80%	20%	0%	80%	60%	0%	0%	100%	–
CC(F)(F)c1cccc([C@H]2CNC(=O)[C@@H]2C(=O)Nc2ccccc2S(C)(=O)=O)c1 [Compound 780]	30%	50%	60%	40%	0%	50%	60%	0%	0%	30%	20%	0%	0%	90%	–

Reference: patent publication US12077503B2, “Substituted cyclic amides and their use as herbicides” (FMC CORPORATION, priority 2015, dated 2024)
